# Key:
# murine CD40 = murine CD40 (Mus musculus, UniProt P27512); test: Recognition of murine CD40; format: binding
# cytokines (IFN-γ, IL-10) = test: Cytokine production after administration to a patient; format: in vivo; conditions: when administered to a patient
# FcγIII receptors = conditions: as described in US20170333556A1; cited from earlier work
# CD40 signaling pathway = conditions: as described in US20170333556A1; cited from earlier work
# Chain of murine CD40 (P27512 20-289): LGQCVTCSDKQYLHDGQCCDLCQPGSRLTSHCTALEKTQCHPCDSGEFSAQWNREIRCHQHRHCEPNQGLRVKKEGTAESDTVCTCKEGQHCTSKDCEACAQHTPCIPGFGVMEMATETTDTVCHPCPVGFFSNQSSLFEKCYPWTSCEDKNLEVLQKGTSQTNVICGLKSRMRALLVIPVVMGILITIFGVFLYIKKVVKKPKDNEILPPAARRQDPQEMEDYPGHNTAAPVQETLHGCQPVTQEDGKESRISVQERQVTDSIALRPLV
substance,measurement,setting,value
SEA-CD40: non-fucosylated humanized IgG1 anti-CD40 monoclonal antibody; heavy and light chains SEQ ID NOs: 1 and 2,recognition of murine CD40,murine CD40,does not recognize murine CD40
same,"production of cytokines, including interferon-γ (IFN-γ)","cytokines (IFN-γ, IL-10)",induce production of cytokines
same,"production of immune-dampening cytokines, such as interleukin-10 (IL-10)","cytokines (IFN-γ, IL-10)",does not induce production
same,binding to FcγIII receptors,FcγIII receptors,enhanced binding
same,ability to activate the CD40 signaling pathway in immune cells,CD40 signaling pathway,enhanced ability

# Reference: patent publication US20230203175A1, “Anti-CD40 Antibody Combination Treatment for Cancer” (SEAGEN INC., priority 2020, published 2023)
